Test results taken from the supplement of paper PMC10307832.

Columns and labels:
Assay in all cases: relative viability (nuclei count vs DMSO), 5 days (fraction); higher = more cells survive
[1] = tested on: NCI-H1648
Summary of the method: (§1)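 Lung cancer cell lines in 1536-well plates were dosed by pin tool the day after seeding, either with one drug alone or with a fixed anchor-drug dose plus five library-drug doses (not always all listed) in √10 steps. After 5 days, cells were fixed and their nuclei stained in one step (final 0.05% Triton X-100, 1% formaldehyde, 1 ug/ml Hoechst), then counted on 4× images. Relative viability is the nuclei count in treated wells divided by that in vehicle wells. Values are medians of duplicate plates.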

[2] = tested on: NCI-H1623
Summary of the method: as §1

[3] = tested on: NCI-H838
Summary of the method: as §1

[4] = tested on: NCI-H1651
Summary of the method: as §1

[5] = tested on: NCI-H650
Summary of the method: as §1

[6] = tested on: NCI-H520
Summary of the method: as §1

[7] = tested on: RERF-LC-KJ
Summary of the method: as §1

[8] = tested on: NCI-H1944
Summary of the method: as §1

[9] = tested on: PC-3 [JPC-3]
Summary of the method: as §1

[10] = tested on: A549
Summary of the method: as §1

[11] = tested on: NCI-H1299
Summary of the method: as §1

[12] = tested on: Calu-6
Summary of the method: as §1

[13] = tested on: EBC-1
Summary of the method: as §1

[14] = tested on: IA-LM
Summary of the method: as §1

[15] = tested on: NCI-H1703
Summary of the method: as §1

Question: Which results are given for `Nc1ccn([C@@H]2O[C@H](CO)[C@@H](O)[C@@H]2O)c(=O)n1` [Cytarabine] + Cc1cc(Nc2cc(N3CCN(C)CC3)nc(Sc3ccc(NC(=O)C4CC4)cc3)n2)n[nH]1 [Tozasertib] (partner 0.1 µM)?
Answer: relative viability ([1]; first compound 0.005 µM): 0.456; relative viability ([1]; first compound 0.01581 µM): 0.517; relative viability ([1]; first compound 0.05 µM): 0.484; relative viability ([1]; first compound 0.1581 µM): 0.265; relative viability ([1]; first compound 0.5 µM): 0.32; relative viability ([2]; first compound 0.005 µM): 0.325; relative viability ([2]; first compound 0.01581 µM): 0.264; relative viability ([2]; first compound 0.05 µM): 0.284; relative viability ([2]; first compound 0.1581 µM): 0.199; relative viability ([2]; first compound 0.5 µM): 0.178; relative viability ([3]; first compound 0.005 µM): 0.29; relative viability ([3]; first compound 0.01581 µM): 0.319; relative viability ([3]; first compound 0.05 µM): 0.231; relative viability ([3]; first compound 0.1581 µM): 0.231; relative viability ([3]; first compound 0.5 µM): 0.161; relative viability ([4]; first compound 0.005 µM): 0.688; relative viability ([4]; first compound 0.01581 µM): 0.707; relative viability ([4]; first compound 0.05 µM): 0.746; relative viability ([4]; first compound 0.1581 µM): 0.577; relative viability ([4]; first compound 0.5 µM): 0.206; relative viability ([5]; first compound 0.005 µM): 0.595; relative viability ([5]; first compound 0.01581 µM): 0.513; relative viability ([5]; first compound 0.05 µM): 0.34; relative viability ([5]; first compound 0.1581 µM): 0.249; relative viability ([5]; first compound 0.5 µM): 0.176; relative viability ([6]; first compound 0.005 µM): 0.416; relative viability ([6]; first compound 0.01581 µM): 0.463; relative viability ([6]; first compound 0.05 µM): 0.478; relative viability ([6]; first compound 0.1581 µM): 0.415; relative viability ([6]; first compound 0.5 µM): 0.494; relative viability ([7]; first compound 0.005 µM): 0.385; relative viability ([7]; first compound 0.01581 µM): 0.512; relative viability ([7]; first compound 0.05 µM): 0.353; relative viability ([7]; first compound 0.1581 µM): 0.393; relative viability ([7]; first compound 0.5 µM): 0.266; relative viability ([8]; first compound 0.005 µM): 0.211; relative viability ([8]; first compound 0.01581 µM): 0.195; relative viability ([8]; first compound 0.05 µM): 0.184; relative viability ([8]; first compound 0.1581 µM): 0.149; relative viability ([8]; first compound 0.5 µM): 0.114; relative viability ([9]; first compound 0.005 µM): 0.726; relative viability ([9]; first compound 0.01581 µM): 0.826; relative viability ([9]; first compound 0.05 µM): 0.966; relative viability ([9]; first compound 0.1581 µM): 0.704; relative viability ([9]; first compound 0.5 µM): 0.665

Question: With `CC(=O)O[C@@]12CO[C@@H]1C[C@H](O)[C@@]1(C)C(=O)[C@H](O)C3=C(C)[C@@H](OC(=O)[C@H](O)[C@@H](NC(=O)OC(C)(C)C)c4ccccc4)C[C@@](O)([C@@H](OC(=O)c4ccccc4)[C@H]21)C3(C)C` [Docetaxel] + COc1cc2c(Oc3ccc(NC(=O)C4(C(=O)Nc5ccc(F)cc5)CC4)cc3F)ccnc2cc1OCCCN1CCOCC1 [Foretinib] (partner 0.25 µM) as the molecule, how does the relative viability ([10]; first compound 0.0002 µM) read?
Answer: 0.957

Question: And the relative viability ([10]; first compound 0.000632 µM)?
Answer: 0.795

Question: And the relative viability ([10]; first compound 0.002 µM)?
Answer: 0.0591

Question: What about the relative viability ([10]; first compound 0.006325 µM) of the same molecule?
Answer: 0.0413

Question: What about the relative viability ([10]; first compound 0.02 µM) of the same molecule?
Answer: 0.0241

Question: And the relative viability ([11]; first compound 0.0002 µM)?
Answer: 1.1

Question: And the relative viability ([11]; first compound 0.000632 µM)?
Answer: 1.14

Question: And the relative viability ([11]; first compound 0.002 µM)?
Answer: 1

Question: And the relative viability ([11]; first compound 0.006325 µM)?
Answer: 0.62

Question: What about the relative viability ([11]; first compound 0.02 µM) of the same molecule?
Answer: 0.295

Question: And the relative viability ([12]; first compound 0.0002 µM)?
Answer: 0.897

Question: What about the relative viability ([12]; first compound 0.000632 µM) of the same molecule?
Answer: 0.627

Question: What about the relative viability ([12]; first compound 0.002 µM) of the same molecule?
Answer: 0.165

Question: What about the relative viability ([12]; first compound 0.006325 µM) of the same molecule?
Answer: 0.081

Question: And the relative viability ([12]; first compound 0.02 µM)?
Answer: 0.0747

Question: What about the relative viability ([2]; first compound 0.0002 µM) of the same molecule?
Answer: 0.869

Question: What about the relative viability ([2]; first compound 0.000632 µM) of the same molecule?
Answer: 0.834

Question: What about the relative viability ([2]; first compound 0.002 µM) of the same molecule?
Answer: 0.584

Question: And the relative viability ([2]; first compound 0.006325 µM)?
Answer: 0.427

Question: And the relative viability ([2]; first compound 0.02 µM)?
Answer: 0.284

Question: And the relative viability ([3]; first compound 0.0002 µM)?
Answer: 0.98

Question: What about the relative viability ([3]; first compound 0.000632 µM) of the same molecule?
Answer: 1.03

Question: What about the relative viability ([3]; first compound 0.002 µM) of the same molecule?
Answer: 0.262

Question: What about the relative viability ([3]; first compound 0.006325 µM) of the same molecule?
Answer: 0.283

Question: And the relative viability ([3]; first compound 0.02 µM)?
Answer: 0.162

Question: And the relative viability ([4]; first compound 0.0002 µM)?
Answer: 0.795

Question: And the relative viability ([4]; first compound 0.000632 µM)?
Answer: 0.789

Question: What about the relative viability ([4]; first compound 0.002 µM) of the same molecule?
Answer: 0.238

Question: What about the relative viability ([4]; first compound 0.006325 µM) of the same molecule?
Answer: 0.128

Question: What about the relative viability ([4]; first compound 0.02 µM) of the same molecule?
Answer: 0.107

Question: And the relative viability ([13]; first compound 0.0002 µM)?
Answer: 0.0936

Question: And the relative viability ([13]; first compound 0.000632 µM)?
Answer: 0.0902

Question: What about the relative viability ([13]; first compound 0.002 µM) of the same molecule?
Answer: 0.0988

Question: What about the relative viability ([13]; first compound 0.006325 µM) of the same molecule?
Answer: 0.0924

Question: What about the relative viability ([13]; first compound 0.02 µM) of the same molecule?
Answer: 0.09

Question: What about the relative viability ([5]; first compound 0.0002 µM) of the same molecule?
Answer: 0.958

Question: What about the relative viability ([5]; first compound 0.000632 µM) of the same molecule?
Answer: 0.921

Question: What about the relative viability ([5]; first compound 0.002 µM) of the same molecule?
Answer: 0.299

Question: And the relative viability ([5]; first compound 0.006325 µM)?
Answer: 0.277

Question: What about the relative viability ([5]; first compound 0.02 µM) of the same molecule?
Answer: 0.218

Question: And the relative viability ([6]; first compound 0.0002 µM)?
Answer: 0.708

Question: What about the relative viability ([6]; first compound 0.000632 µM) of the same molecule?
Answer: 0.808

Question: What about the relative viability ([6]; first compound 0.002 µM) of the same molecule?
Answer: 0.341

Question: What about the relative viability ([6]; first compound 0.006325 µM) of the same molecule?
Answer: 0.218

Question: What about the relative viability ([6]; first compound 0.02 µM) of the same molecule?
Answer: 0.173

Question: What about the relative viability ([7]; first compound 0.0002 µM) of the same molecule?
Answer: 0.882

Question: And the relative viability ([7]; first compound 0.000632 µM)?
Answer: 0.898

Question: What about the relative viability ([7]; first compound 0.002 µM) of the same molecule?
Answer: 0.402

Question: And the relative viability ([7]; first compound 0.006325 µM)?
Answer: 0.2

Question: What about the relative viability ([7]; first compound 0.02 µM) of the same molecule?
Answer: 0.203

Question: And the relative viability ([8]; first compound 0.0002 µM)?
Answer: 0.85

Question: What about the relative viability ([8]; first compound 0.000632 µM) of the same molecule?
Answer: 0.86

Question: What about the relative viability ([8]; first compound 0.002 µM) of the same molecule?
Answer: 0.692

Question: What about the relative viability ([8]; first compound 0.006325 µM) of the same molecule?
Answer: 0.31

Question: What about the relative viability ([8]; first compound 0.02 µM) of the same molecule?
Answer: 0.151

Question: And the relative viability ([14]; first compound 0.0002 µM)?
Answer: 1.05

Question: What about the relative viability ([14]; first compound 0.000632 µM) of the same molecule?
Answer: 0.386

Question: What about the relative viability ([14]; first compound 0.002 µM) of the same molecule?
Answer: 0.0546

Question: And the relative viability ([14]; first compound 0.006325 µM)?
Answer: 0.0457

Question: And the relative viability ([14]; first compound 0.02 µM)?
Answer: 0.0491

Question: What about the relative viability ([15]; first compound 0.000632 µM) of the same molecule?
Answer: 0.351

Question: And the relative viability ([15]; first compound 0.002 µM)?
Answer: 0.341

Question: And the relative viability ([15]; first compound 0.006325 µM)?
Answer: 0.179

Question: And the relative viability ([15]; first compound 0.02 µM)?
Answer: 0.154

Question: And the relative viability ([9]; first compound 0.0002 µM)?
Answer: 0.962

Question: What about the relative viability ([9]; first compound 0.000632 µM) of the same molecule?
Answer: 0.945

Question: What about the relative viability ([9]; first compound 0.002 µM) of the same molecule?
Answer: 0.544

Question: And the relative viability ([9]; first compound 0.006325 µM)?
Answer: 0.179

Question: And the relative viability ([9]; first compound 0.02 µM)?
Answer: 0.149
